Two compounds from patent US4348264A, “Photocatalyzed process for producing carbapenams and carbapen-2-ems” (Pfizer Inc., priority 1981, dated 1982) can be followed below.

Common to all, as to assay type: cell-based
For one test, the system named is Bacillus subtilis. The test is described as follows: Standard disc-plate method, zone of inhibition. As to conditions: Bacillus subtilis; 25 microgram discs. The gist of the method: (§1)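 Compound is applied at roughly 25 microg per 6.25 mm paper disc, prepared by dipping in a 1 mg/ml solution in volatile solvent and drying. After overnight incubation at 35°-37° C on organism-seeded agar, activity is taken as the diameter of the clear zone around each disc.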

Test [1] deals with Staphylococcus aureus. As to the kind of experiment: Standard disc-plate method, zone of inhibition. As to conditions: Staphylococcus aureus; 25 microgram discs. The gist of the method:
as §1

The test system of the next test is Micrococcus luteus. As to the kind of experiment: Standard disc-plate method, zone of inhibition. As to conditions: Micrococcus luteus; 25 microgram discs. The gist of the method: as §1
Test [2] concerns Escherichia coli. As to the kind of experiment: Standard disc-plate method, zone of inhibition. As to conditions: Escherichia coli, 25 microgram discs. The gist of the method:
as §1

For test [3], the system named is Staphylococcus aureus (Antibiotic Resistant). As to the kind of experiment: Standard disc-plate method, zone of inhibition. As to conditions: Staphylococcus aureus; 25 microgram discs; antibiotic resistant. A digest of the protocol:
as §1

The subject of the next test is Vibrio percolans. As to the kind of experiment: Standard disc-plate method, zone of inhibition. As to conditions: Comamonas terrigena, 25 microgram discs. The gist of the method: as §1
Another test deals with Pseudomonas aeruginosa. The test is described as follows: Serial dilution-tube method, MIC. To be noted: Pseudomonas aeruginosa; brain heart infusion broth; read-out: Minimum Inhibitory Concentration.
Test [4] deals with Staphylococcus aureus (Antibiotic Resistant). The test is described as follows: Serial dilution-tube method, MIC. To be noted: for MIC: Staphylococcus aureus, brain heart infusion broth, read-out: Minimum Inhibitory Concentration. Also on record: key to synergistic effect with ampicillin: Shows a synergistic effect when tested 1:1 with ampicillin.
The test system of test [5] is Staphylococcus aureus. As to the kind of experiment: Serial dilution-tube method, MIC. To be noted: Staphylococcus aureus; brain heart infusion broth; read-out: Minimum Inhibitory Concentration.
Another test relates to Enterobacter cloacae. The test is described as follows: Serial dilution-tube method, MIC. As to conditions: Enterobacter cloacae; brain heart infusion broth; read-out: Minimum Inhibitory Concentration.
Test [6] has as its system Escherichia coli (Antibiotic Resistant). The test is described as follows: Serial dilution-tube method, MIC. To be noted: Escherichia coli, brain heart infusion broth, read-out: Minimum Inhibitory Concentration.
Test [7] concerns Escherichia coli. As to the kind of experiment: Serial dilution-tube method, MIC. To be noted: Escherichia coli; brain heart infusion broth; read-out: Minimum Inhibitory Concentration.
For another test, the system named is Klebsiella pneumoniae. The test is described as follows: Serial dilution-tube method, MIC. As to conditions: Klebsiella pneumoniae; brain heart infusion broth; read-out: Minimum Inhibitory Concentration.
For a further test, the system named is Proteus morgani. The test is described as follows: Serial dilution-tube method, MIC. To be noted: brain heart infusion broth; read-out: Minimum Inhibitory Concentration.
For another test, the system named is Serratia marcescens. As to the kind of experiment: Serial dilution-tube method, MIC. As to conditions: Serratia marcescens; brain heart infusion broth; read-out: Minimum Inhibitory Concentration.
In a further test the test system is Citrobacter diversus. As to the kind of experiment: Serial dilution-tube method, MIC. As to conditions: Citrobacter koseri; brain heart infusion broth; read-out: Minimum Inhibitory Concentration.

Converted amounts (≈) assume the structure as drawn.

For orientation: zone of inhibition means the extent of the growth-free halo in a diffusion test.

As for `CC1=C(C(=O)OCOC(=O)C(C)(C)C)N2C(=O)CC2C1=O` (centres unmarked) [H H POM CH3 O II, Pivaloyloxymethyl 2-Methyl-1-oxocarbapen-2-em-3-carboxylate], the zone of inhibition at 25 µg/disc in the test on Bacillus subtilis is 37 mm; in the test with Staphylococcus aureus [1], 22 mm; in the test on Micrococcus luteus it was 26 mm; in the test with Escherichia coli [2], 0 mm; in test [3], 18 mm; in the test with Vibrio percolans it was 14 mm. For the same compound, the MIC (in the test with Pseudomonas aeruginosa; in test [4]; in the test on Staphylococcus aureus [5]; in the test on Enterobacter cloacae; in test [6]; with Escherichia coli [7]) was greater than 200 µg/mL each time. In addition, the MIC in the test on Klebsiella pneumoniae, in the test on Proteus morgani, in the test on Serratia marcescens and in the test with Citrobacter diversus was greater than 200 µg/mL each time.
With `CC1C(O)C2C(NC(=O)COc3ccccc3)C(=O)N2C1C(=O)OCOC(=O)C(C)(C)C` (centres unmarked) [PMA H POM CH3 H OH I, Pivaloyloxymethyl 1-Hydroxy-2-methyl-6-(2-phenoxyacetamido)carbapenam-3-carboxylate], the zone of inhibition at 25 µg/disc in the test on Bacillus subtilis worked out at 23 mm; with Staphylococcus aureus [1], 20 mm; in the test with Micrococcus luteus, 14 mm; with Escherichia coli [2], 0 mm; in [3] it was 17 mm. In addition, the MIC is greater than 200 µg/mL in the test on Pseudomonas aeruginosa; 200 µg/mL in test [4]; 25 µg/mL (≈ 55.7 µM) in the test on Staphylococcus aureus [5]; greater than 200 µg/mL in the test on Enterobacter cloacae; greater than 200 µg/mL in test [6]; greater than 200 µg/mL in the test on Escherichia coli [7]. Moreover, the MIC in the test on Klebsiella pneumoniae, with Proteus morgani, in the test on Serratia marcescens and with Citrobacter diversus was greater than 200 µg/mL in each case. Also, the “synergistic effect with ampicillin” value in test [4] (tested 1:1 with ampicillin) is recorded as “a”.
